Results published in US20170029436A1, “NEOSORAPHENS” (Helmoltz-Zentrum für Infektionsforschung GmbH, priority 2014, published 2017).

Tests used:
[1] = test system: genotype 2a (Jc1 chimera) HCVcc virus; experiment: HCV cell-culture (HCVcc) infection assay, Luc-Jc1 luciferase reporter in Huh7/Scr cells; format: cell-based; settings: for EC50: Hepatitis C virus, Huh-7, 72 h, read-out: EC50 (antiviral activity, HCV infection); for SI (Selectivity Index): calculated from EC50 and CC50
Procedure: (§1) To assess the inhibitory effects of Neosoraphens on HCV infection, a HCV cell-culture (HCVcc) system^[1-3] was used. Unless otherwise stated, Huh7/Scr cells (provided by F. Chisari, The Scripps Research Institute, La Jolla, Calif.) which are highly permissive for HCV propagation in vitro were employed. The experiments were performed in the context of genotype 2a (Jc1 chimera^[4]) HCVcc virus. To facilitate the quantification of infection, the bicistronic Jc1 luciferase reporter construct, designated Luc-Jc1^[5], was used. The commercial ACC inhibitor 5-(Tetradecyloxy)-2-furoic acid (TOFA), which has been previously described to inhibit HCV replication^[6], was chosen for comparison of the antiviral activities of the Neosoraphens. The NS3-4A serine protease inhibitor VX-950^[7], a known HCV replication inhibitor, was used as positive control. Briefly, Huh7/Scr cells were seeded at a density of 1.2×10^4 cells/well in 96-well plates. One day later cells were pre-incubated for 1 h at 37° C. with the compounds and then inoculated with the virus and the compounds for 4 h at 37° C. Finally, virus-containing media was replaced by a fresh media-compounds mix. Firefly luciferase activities were assayed 72 h post infection with the Dual-Glo® Luciferase Assay System while cytotoxicity (viability) assays were carried out with the CytoTox-Glo™ Cytotoxicity Assay (both purchased from Promega Corporation, Madison, Wis.), according to manufacturer's instructions, using a plate luminometer FLUOstar OPTIMA (BMG LABTECH, Ortenberg, Germany). Mean relative light units (RLU) were plotted as percentage relative to control infections (solvent without compounds) for both infectivity and cell viability. Infections were carried out in triplicates and measured in duplicates (mean±SEM; n=6). Half maximal effective concentration (EC50) and half maximal cytotoxic concentration 50 (CC50) were estimated by non-linear regression of log inhibitor vs. normalized response and used to calculate the Selectivity Index (SI) value.

[2] = CytoTox-Glo cytotoxicity (viability) assay; format: cell-based; settings: human, Huh7/Scr cells, read-out: CC50 (half maximal cytotoxic concentration)
Procedure: as §1

[3] = test system: Naive mouse CD4+ T cells under Th17 conditions; experiment: In vitro Th17 differentiation of naive CD4+ T cells (IL-17A+ cells by flow cytometry); format: cell-based; settings: 4 days under Th17 conditions, FIG. 1A; for percentage of IL-17A producing T-cells (inhibition of Th17 differentiation): varying concentrations
Procedure: (§2) Single cell suspensions were prepared and pooled from the spleen, mesenteric and peripheral lymph nodes of adult C57BL/6 mice by filtering the crushed organs through a 70 μm cell-strainer. Naïve CD4+CD25^−CD62L+ T cells were subsequently isolated from these suspensions using the CD4+CD25^−CD62L+ T cell isolation Kit II and AutoMACS according to the manufacturer's protocol (Miltenyi Biotec) or by FACS sorting. Purified T cells were cultured under classic Th17 inducing conditions (Bettelli et al., Nature 441(7090): 235-8 (2006)). In detail, the cells were cultured in 96 well flat bottom plates (3×10^5 cells per well), that were precoated with 10 μg/ml anti-CD3 Antibody (clone 145-2C11, BioXcell) in the presence of antibodies against CD28 (1 μg/ml, clone 37.51, BioXcell), IFN-γ (5 μg/ml, clone XMG1.2, BioXcell) and IL-4 (5 μg/ml, clone 11B11, BioXcell) as well as in the presence of TGFβ1 (2 ng/ml, R&D), IL-6 (5 ng/ml, R&D) and IL-1β (50 ng/ml, R&D) in IMDM Medium (supplemented with 10% FCS+500 U PenStrep+50 μM β-Mercaptoethanol). To these cultures, increasing concentrations of ACC Inhibitors Soraphen A or 5-(Tetradecyloxy)-2-furoic acid (TOFA) (both dissolved in DMSO) were added on day 0 and cultured for up to 4 days in an cell culture incubator (37° C. and 5% CO2). As control, cells were cultured in the presence of DMSO only.
(§3) Were indicated, cells from Th17 cultures were restimulated with 100 ng/ml phorbol 12-myristate 13-acetate (Sigma) and 1 μg/ml Inonomycin (Sigma) for 4 h and Brefeldin A (1:1000, Sigma) was added for the last 2 h of restimulation. After restimulation, cells were harvested for flow cytometry. For surface staining: fluorophore-labelled mAbs aginst CD3ε and CD4 were obtained from eBiosciences. For intracellular staining, cells were fixed with Fix/Perm (eBioscience) according to the manufacturer's protocol, and stained intracellular with fluorophore-labelled mAbs directed against IL-17A and Foxp3 (eBiosciences). Cells were run on a flow cytometer (CyAn, Beckman Coulter) and data was analysed on FlowJo (TreeStar) software.
(§4) To isolate naive CD4+CD25^−CD62L+ T cells by FACS-sorting, lymphocyte suspensions were surface-stained with fluorophore-labelled mAbs aginst CD4, CD25 and CD62L (all from ebioscience) and live CD4+CD25^−CD62L+ T cells were sorted to >98% purity using a Moflo (Beckman Coulter) or FACS ARIAII (BD Biosciences) cell sorter.
(§5) Naive mouse CD4^+ T cells were cultured for 4 days under Th17 conditions in the presence of varying concentrations of the compounds of the invention. As control, cells were cultured in the presence of DMSO only (negative control) or ACC inhibitor Soraphen A (positive control). After 4 days, cells were restimulated with PMA/Ionomycin for 4 h and Brefeldin A for 2 h and further analysed by flow cytometry.

[4] = test system: Naive mouse CD4+ T cells under Th17 conditions; experiment: Induction of Foxp3+ Treg differentiation in Th17 cultures (flow cytometry); format: cell-based; settings: 4 days under Th17 conditions, varying concentrations, FIG. 1B
Procedure: as §2, §3, §4, §5

[5] = test system: rotavirus (RV); settings: Gaunt et al., J Gen Virol 2013; cited from earlier work

## COC1CCCCC(c2ccccc2)OC(=O)CC2(O)CC(O)C(C)C(O2)C(C)/C=C/C1O (stereo not shown) [Neosoraphen M462]
[1]
  EC50: 7.74 nM
  SI (Selectivity Index): 1752
[2]
  CC50 at 72 h: 13600 nM
[3]
  percentage of IL-17A producing T-cells (inhibition of Th17 differentiation): Inhibition of Th17
[4]
  differentiation of Foxp3+ Treg cells: induction of Treg differentiation

## COC1CCCCC(c2ccccc2)OC(=O)CC2(O)CC(O)C(C)C(O2)C(C)CCC1O (stereo not shown) [Neosoraphen M464]
[1]
  EC50: 46 nM
  SI (Selectivity Index): 1136
[2]
  CC50 at 72 h: 52200 nM
[3]
  percentage of IL-17A producing T-cells (inhibition of Th17 differentiation): Inhibition of Th17
[4]
  differentiation of Foxp3+ Treg cells: induction of Treg differentiation

## COC1/C=C/C(C)C2OC(O)(CC(=O)OC(c3ccccc3)CCCCC1OC)CC(O)C2C (stereo not shown) [Neosoraphen M476]
[1]
  EC50: 2.09 nM
  SI (Selectivity Index): 95072
[2]
  CC50 at 72 h: 199000 nM
[3]
  percentage of IL-17A producing T-cells (inhibition of Th17 differentiation): Inhibition of Th17
[4]
  differentiation of Foxp3+ Treg cells: induction of Treg differentiation

## COC1CCCCC(c2ccccc2)OC(=O)CC2(O)CC(O)C(C)C(O2)C(C)CCC1OC (stereo not shown) [Neosoraphen M478]
[1]
  EC50: 1.52 nM
  SI (Selectivity Index): 64961
[2]
  CC50 at 72 h: 98700 nM
[3]
  percentage of IL-17A producing T-cells (inhibition of Th17 differentiation): Inhibition of Th17
[4]
  differentiation of Foxp3+ Treg cells: induction of Treg differentiation

## COC1CCCCC(c2ccccc2)OC(=O)CC2(O)CC(O)C(C)C(O2)C(C)C(O)CC1O (stereo not shown) [Neosoraphen M480]
[1]
  EC50: 65.7 nM
  SI (Selectivity Index): 693
[2]
  CC50 at 72 h: 45500 nM

## CO[C@H]1CCCC[C@@H](c2ccccc2)OC(=O)[C@@H](C)[C@@]2(O)O[C@H]([C@@H](C)[C@H](O)[C@H]2OC)[C@@H](C)/C=C/[C@H]1OC [Soraphen A, reference compound]
[3]; read-out: EC50 for decrease of IL-17A producing T-cells
  EC50: 40 nM
[3]
  percentage of IL-17A producing T-cells (inhibition of Th17 differentiation): decreases the percentage of IL-17A producing T-cells in a dose dependent manner
[4]
  differentiation of Foxp3+ Treg cells: induces the reciprocal differentiation of Foxp3+ Treg cells

## CCCCCCCCCCCCCCOc1ccc(C(=O)O)o1 [TOFA, 5-(Tetradecyloxy)-2-furoic acid, reference compound]
[1]
  EC50: 1010 nM
  SI (Selectivity Index): 34
[2]
  CC50 at 72 h: 33900 nM
[5]
  reduction of infectivity of progeny rotavirus: 31 fold
  reduction of viral RNA production: 6 fold

## CCC[C@H](NC(=O)[C@@H]1[C@H]2CCC[C@H]2CN1C(=O)[C@@H](NC(=O)[C@@H](NC(=O)c1cnccn1)C1CCCCC1)C(C)(C)C)C(=O)C(=O)NC1CC1 [VX-950, reference compound]
[1]
  EC50: 18.9 nM
  SI (Selectivity Index): 4995
[2]
  CC50 at 72 h: 94500 nM
